Measured values from US8962634B2, “4-amino-3-arylamino-6-arylpyrazolo[3,4-d) pyrimidine derivatives, methods for their preparation and their use as antiviral agents” (priority 2006, dated 2015).
Values after ≈ are worked out from the molar mass of the structure shown. Like-named read-outs stand apart in the source and are kept apart here.

What was measured:
[1] = Tolerance in the cell culture: cytotoxicity in HeLa cells (CC50); assay type: cell-based; settings: human, repeated per virus line of the plaque reduction table, read-out: 50% zytotoxic concentration in HeLa cells (CC50)
Method: (§1) 1×10^4 HeLa cells (DSMZ, ACC 57) were seeded per microtestplate cavity in 0.2 ml culture medium RPMI 1640. The microtiter plates were incubated without the test substance according to standard (at 37° C., 5% CO2 and ca. 95% relative humidity) for 48 hours under physiological conditions to produce subconfluent monolayers. Afterwards, dilution stages of the test substances were added to the monolayers and incubated under physiological conditions during a period of 72 h. At the end of the time of incubation, the extinction of all cavities of the microtiterplates were measured at 660 nm by means of a microplate reader (Sunrise, TECAN) after glutaraldehyd fixation and methylen-blue dye and the CC50 was determined by the analysis program “Magellan”. As the pre-incubation of the HeLa cells already leads to the formation of a subconfluent cell lawn, the cytolysis during the subsequent incubation with the test substance is decisive for the analysis. GMK cells were seemed in microtiter plates and preincubated at 5% CO2, 37° C. and with a humidity of 95% in the incubator during 48 h for producing a cell lawn (Schmidtke M et al.: J Virol Meth, 2001, 95(1-2), 133-143). Then, the medium was removed and the substances were deposited in different concentrations (100 μl/well/concentration, dilution factor 2) in the culture medium. 100 μl of the medium was used for each of the control value determinations (six untreated cell controls). 72 h after the substance application and incubation, the cells were dyed with crystal-violet/methanol. After the extraction of the dye, the optical density (OD) of the individual cavities were measured in a plate photometer of the Dynatech company (550/630 nm) and compared with the mean value of the cell controls. The mean value of the controls was assumed to be 100 %. By means of the mean dose effect curves the 50% cytotoxic concentrations (CC50) were measured by applying the linear interpolation method.

HeLa cells = experiment: as above; assay type: cell-based; settings: 72 h incubation
Method: as §1

GMK cells = experiment: Tolerance in the cell culture: cytotoxicity in GMK cells (CC50); assay type: cell-based; settings: 72 h incubation
Method: as §1

[2] = tested on: coxsackievirus B3 Nancy (CVB3 Nancy); experiment: Cytopathic effect (cpE)-inhibition test in HeLa cells, CVB3 Nancy; assay type: cell-based; settings: 24 h after infection; for IC50: Enterovirus B, read-out: 50% inhibition concentration CVB3 Nancy
Method: (§2) Cytopathic effect (cpE)-inhibition test with the international reference strain coxsackievirus B3 Nancy (CVB3 Nancy), human rhinovirus 2 and 8 (HRV2 and […]) in HeLa cells
(§3) The replication of the viruses used in the test leads to the complete destruction of the host cells, a strong cytophatic effect (cpE). […] In the test, untreated and substance-treated compact cell lawns were infected with a virus dose that leads to a complete cpE in the untreated virus controls 24 h (CVB3 Nancy) or 72 h (HRV2 and HRV8) after the infection. At this point in time, the still adherent cells were fixed and dyed with a crystal-violet/formalin solution. The inhibition of the virus-induced cpE was quantified photometrically in a Dynatach plate reader after dye elution. The antiviral effect was calculated by comparing the optical densities of the substance-treated and untreated, virus-infected cells with the mean optical density of the cell controls that was assumed to be 100%. By means of the mean dose effect curves the 50% inhibition concentration was determined. Pleconaril was used as a control substance.

[3] = tested on: human rhinovirus 2 (HRV2); experiment: Cytopathic effect (cpE)-inhibition test in HeLa cells, HRV2; assay type: cell-based; settings: for IC50: Rhinovirus A, read-out: 50% inhibition concentration HRV2
Method: as §2, §3

[4] = tested on: human rhinovirus 8 (HRV8); experiment: Cytopathic effect (cpE)-inhibition test in HeLa cells, HRV8; assay type: cell-based; settings: for IC50: Rhinovirus A, read-out: 50% inhibition concentration HRV8
Method: as §2, §3

coxsackievirus B1 (CVB1) = experiment: Plaque reduction test (PRT) in HeLa cells, CVB1; assay type: cell-based
Method: (§4) Plaque reduction test (PRT) with the substance of example 1 and coxsackievirus B1, B2, B4, B5, B6 (CVB1, CVB2, CVB4, CVB5, CVB6)
(§5) For performing the test, 2-3-days-old compact HeLa cell lawns were infected in 12-well-tissue culture plates with 50-80 plaque-forming units (PFU) (Schmidtke M et al.: J Virol Meth, 2001, 95(1-2), 133-143). Two non-infected cavities of the plate were used as cell controls (CC). After a virus adsorption at 37° C. during one hour the virus-containing supernatant was soaked off. The infected cells were covered with a test medium containing 0.4% agar without (virus controls) or with substance in non-zytotoxic concentrations (dilution factor 2, double determination per concentration) and incubated at 37° C. during 48 h. After the fixation and dyeing of the plates with crystal-violet formalin, the agar was removed and rinsed in flowing water. The number of the virus-induced plaques was counted via a light box and afterwards the proportional substance-induced plaque reduction was calculated. Three identical test approaches were performed and the concentration that leads to a 50% plaque reduction (IC50) was measured by using the calculated mean dose-effect-curve.

coxsackievirus B2 (CVB2) = experiment: Plaque reduction test (PRT) in HeLa cells, CVB2; assay type: cell-based
Method: as §4, §5

coxsackievirus B4 (CVB4) = experiment: Plaque reduction test (PRT) in HeLa cells, CVB4; assay type: cell-based
Method: as §4, §5

coxsackievirus B5 (CVB5) = experiment: Plaque reduction test (PRT) in HeLa cells, CVB5; assay type: cell-based
Method: as §4, §5

coxsackievirus B6 (CVB6) = experiment: Plaque reduction test (PRT) in HeLa cells, CVB6; assay type: cell-based
Method: as §4, §5

mice = experiment: Acute toxicity in the mouse, single oral administration; assay type: in vivo; settings: for Number of dead/surviving mice: 5 mice; for substance concentration up to which all animals survived: administered orally once, mice; for tolerability after administering orally once: mouse, in vivo, po; for influence on general state of health, rectal temperature, body weight: up to 3.000 mg/kg orally once, three days observation
Method: The acute toxicity of the substances of the examples 2 and 4 were determined in mice which were 4-5 weeks old (without strain designation). 1-2 drops TWIN-80 were added to a 1% aqueous carboxymethyl cellulose solution and this mixture was used to produce a substance suspension. 1500, 2000, 2500, 3000, 4000 or 5000 mg/kg of the substances of the examples 2 and 4 were administered orally to 5 mice, each amount once. On the following three days, the general state of health of the mice, the changes in their weight, their rectal temperatures and their survival rate were determined.

[5] = cpE inhibition, HeLa cells, 72 h after infection
[6] = HRV2, cpE inhibition, HeLa cells, 72 h after infection
[7] = HRV8, cpE inhibition, HeLa cells, 72 h after infection

Nc1nc(-c2ccccc2)nc2[nH]nc(Nc3ccccc3)c12 [Example 1, 4-amino-3-phenylamino-6-phenylpyrazolo[3,4-d]pyrimidine]
CC50 at 72 h [1]: 39.6 µg/mL (≈ 131 µM) | 50% cytotoxic concentration in HeLa cells (HeLa cells): 39.6 µg/mL | 50% cytotoxic concentration in GMK cells (GMK cells): >50 µg/mL | IC50 [2]: 0.002 µg/mL (≈ 0.00662 µM) | 50% inhibition concentration HRV2 [3, 5]: ineffective | 50% inhibition concentration HRV8 [4, 5]: ineffective | Selection index (SI) = CC50:IC50 (coxsackievirus B1 (CVB1); CVB1): 3.1 | IC50 (coxsackievirus B1 (CVB1); Enterovirus B, HeLa, plaque reduction, CVB1, 48 h, read-out: 50% inhibition concentration in HeLa cells (IC50)): 12.7 µg/mL (≈ 42 µM) | Selection index (SI) = CC50:IC50 (coxsackievirus B2 (CVB2); CVB2): 132 | IC50 (coxsackievirus B2 (CVB2); Enterovirus B, HeLa, plaque reduction, CVB2, 48 h, read-out: 50% inhibition concentration in HeLa cells (IC50)): 0.3 µg/mL (≈ 0.992 µM) | Selection index (SI) = CC50:IC50 (coxsackievirus B4 (CVB4); CVB4): 5.6 | IC50 (coxsackievirus B4 (CVB4); Enterovirus B, HeLa, plaque reduction, CVB4, 48 h, read-out: 50% inhibition concentration in HeLa cells (IC50)): 7.1 µg/mL (≈ 23.5 µM) | Selection index (SI) = CC50:IC50 (coxsackievirus B5 (CVB5); CVB5): 14.1 | IC50 (coxsackievirus B5 (CVB5); Enterovirus B, HeLa, plaque reduction, CVB5, 48 h, read-out: 50% inhibition concentration in HeLa cells (IC50)): 2.8 µg/mL (≈ 9.26 µM) | Selection index (SI) = CC50:IC50 (coxsackievirus B6 (CVB6); CVB6): 15.3 | IC50 (coxsackievirus B6 (CVB6); Enterovirus B, HeLa, plaque reduction, CVB6, 48 h, read-out: 50% inhibition concentration in HeLa cells (IC50)): 2.6 µg/mL (≈ 8.6 µM)

Nc1nc(-c2ccccc2)nc2[nH]nc(Nc3cccc(F)c3)c12 [Example 2, 4-amino-3-(3-fluorophenyl)amino-6-phenylpyrazolo[3,4-d]pyrimidine]
50% cytotoxic concentration in HeLa cells (HeLa cells): 45.7 µg/mL | 50% cytotoxic concentration in GMK cells (GMK cells): >50 µg/mL | IC50 [2]: 0.001 µg/mL (≈ 0.00312 µM) | IC50 [3, 6]: 4.1 µg/mL (≈ 12.8 µM) | IC50 [4, 7]: 4.6 µg/mL (≈ 14.4 µM) | Number of dead/surviving mice (mice; 1500 mg/kg orally once): 0/5 | Number of dead/surviving mice (mice; 2000 mg/kg orally once): 0/5 | Number of dead/surviving mice (mice; 2500 mg/kg orally once): 0/5 | Number of dead/surviving mice (mice; 3000 mg/kg orally once): 0/5 | Number of dead/surviving mice (mice; 4000 mg/kg orally once): 3/5 | Number of dead/surviving mice (mice; 5000 mg/kg orally once): 5/5 | substance concentration up to which all animals survived (mice): 3.000 mg/kg | tolerability after administering orally once (mice): very tolerable | influence on general state of health, rectal temperature, body weight (mice): Neither the general state of health nor the rectal temperature nor the body weight was influenced

Cc1cccc(Nc2n[nH]c3nc(-c4ccccc4)nc(N)c23)c1 [Example 3, 4-amino-3-(3-methylphenyl)amino-6-phenylpyrazolo[3,4-d]pyrimidine]
50% cytotoxic concentration in HeLa cells (HeLa cells): 27.7 µg/mL | IC50 [2]: 0.02 µg/mL (≈ 0.0632 µM) | IC50 [3, 6]: 1.1 µg/mL (≈ 3.48 µM) | IC50 [4, 7]: 1 µg/mL (≈ 3.16 µM) | melting point: 246 to 248 °C

Cc1ccc(Nc2n[nH]c3nc(-c4ccccc4)nc(N)c23)cc1 [Example 4, 4-amino-3-(4-methylphenyl)amino-6-phenylpyrazolo[3,4-d]pyrimidine]
50% cytotoxic concentration in HeLa cells (HeLa cells): >50 µg/mL | 50% cytotoxic concentration in GMK cells (GMK cells): >50 µg/mL | IC50 [2]: 0.08 µg/mL (≈ 0.253 µM) | IC50 [3, 6]: 1.8 µg/mL (≈ 5.69 µM) | IC50 [4, 7]: 2.2 µg/mL (≈ 6.95 µM) | Number of dead/surviving mice (mice; 1500 mg/kg orally once): 0/5 | Number of dead/surviving mice (mice; 2000 mg/kg orally once): 0/5 | Number of dead/surviving mice (mice; 2500 mg/kg orally once): 0/5 | Number of dead/surviving mice (mice; 3000 mg/kg orally once): 0/5 | Number of dead/surviving mice (mice; 4000 mg/kg orally once): 4/5 | Number of dead/surviving mice (mice; 5000 mg/kg orally once): 5/5 | substance concentration up to which all animals survived (mice): 3.000 mg/kg | tolerability after administering orally once (mice): very tolerable | influence on general state of health, rectal temperature, body weight (mice): Neither the general state of health nor the rectal temperature nor the body weight was influenced

Nc1nc(-c2ccccc2)nc2[nH]nc(Nc3ccc(Br)cc3)c12 [Example 5, 4-amino-3-(4-bromophenyl)amino-6-phenylpyrazolo[3,4-d]pyrimidine]
50% cytotoxic concentration in HeLa cells (HeLa cells): 8.5 µg/mL | 50% cytotoxic concentration in GMK cells (GMK cells): 42.9 µg/mL | IC50 [2]: 0.04 µg/mL (≈ 0.105 µM) | IC50 [3, 6]: 0.7 µg/mL (≈ 1.84 µM) | IC50 [4, 7]: 1 µg/mL (≈ 2.62 µM) | melting point: 272 to 274 °C

Nc1nc(-c2ccccc2)nc2[nH]nc(Nc3ccc(F)cc3)c12 [Example 6, 4-amino-3-(4-fluorophenyl)amino-6-phenylpyrazolo[3,4-d]pyrimidine]
50% cytotoxic concentration in HeLa cells (HeLa cells): 44.3 µg/mL | 50% cytotoxic concentration in GMK cells (GMK cells): >50 µg/mL | IC50 [2]: 0.03 µg/mL (≈ 0.0937 µM) | IC50 [3, 6]: 0.9 µg/mL (≈ 2.81 µM) | IC50 [4, 7]: 2 µg/mL (≈ 6.24 µM) | melting point: 259 to 263 °C

Cc1cc(CCCOc2c(C)cc(-c3noc(C(F)(F)F)n3)cc2C)on1 [Pleconaril, reference compound]
50% inhibition concentration CVB3 Nancy [2]: ineffective | IC50 ([3]; HRV2, HeLa, 72 h): 0.01 µg/mL (≈ 0.0262 µM) | IC50 ([4]; HRV8, HeLa, 72 h): 1.3 µg/mL (≈ 3.41 µM)
